Legend:
[1] = test system: MDA-MB-231 cells; assay: Cell proliferation assay (7-day cell counting); assay type: cell-based, human; details: 7-day proliferation, 1 μM, vs vehicle-only control
Protocol: To assess proliferation, cells were seeded at 4.2 × 10^5 cells/mL in 24-well plates. Following 24 h, the media were replaced with fresh RPMI + 5% FCS, in the presence or absence of treatments and a selection of wells counted (day 0 counts). Cells were subsequently counted each day up to 7 days to assess proliferation. Briefly, this entailed the removal of old media and the addition of trypsin/EDTA in order to lift cells before passing gently through a 25 G needle to achieve a single-cell suspension. The resulting solution was then added to isoton in a counting cup and the cell number was determined using a Coulter Multisizer III (Beckman Coulter Life Sciences, Indianopolis, IN, USA) Each well was counted twice with all conditions performed in triplicate.

[2] = test system: MDA-MB-231 cells; assay: Boyden chamber migration; assay type: cell-based, human; details: 18 h Boyden chamber
Protocol: Migration was assessed utilising 24-well, transmembrane permeable support plates (Corning Lifesciences, Corning, New York, NY, USA) with 6.5 mm microporous membrane (8 μm pore size) inserts, each coated with 10 μg/mL fibronectin in sterile PBS. Inserts were placed into wells containing RPMI + 5% FCS (± treatments), before cells in serum-free RPMI were seeded into the top portion of each insert at a density of 50,000 cells/mL. Cells were then incubated at 37 °C and 5% CO2 for 18 h. After this migratory period was completed, cells were fixed to the underside of the inserts in 3.7% PFA in PBS and stained with 0.5% crystal violet solution. Resulting inserts were then imaged using a standard light microscope.

In the case of `CC(C)(C)c1ccc(C(CN)c2ccc(Cl)cc2)cc1` (centres unmarked) [Compound I], the “Proliferation rates of MDA-MB-231 cells” value [1] is reported as “significantly reduce proliferation rates” and the Serum-stimulated migration [2] is reported as “significant reduction in serum-stimulated migration”.

— paper PMC7435868, “Structure-Based Virtual Screening, Synthesis and Biological Evaluation of Potential FAK-FAT Domain Inhibitors for Treatment of Metastatic Cancer” (Molecules, 2020)
